Earlier results as cited in patent US20260284237A1, “RADIOLABELED FAPI COMPLEX, AND PREPARATION METHOD THEREFOR AND USE THEREOF” (BEIJING NORMAL UNIVERSITY, priority 2023, published 2026).

Columns and labels:
FAP = details: background statement
[1] = background statement

## N#C[C@@H]1CC(F)(F)CN1C(=O)CNC(=O)c1ccnc2ccc(OCCCN3CCN(C(=O)CN4CCN(CC(=O)O)CCN(CC(=O)O)CCN(CC(=O)O)CC4)CC3)cc12 [FAPI-04]
FAP
  affinity and specificity toward the FAP: favorable affinity and specificity toward the FAP
[1]
  tumor uptake as radiotherapeutic drug: relatively low tumor uptake
